The nature of one data set: WST-1 cell viability. The class given is cell-based. The conditions noted are these: human, uninfected HeLa cells, WST-1, relative to DMSO control as 100%. The procedure: (§1) Uninfected HeLa cells were cultured with 32 μM (the highest concentration used in antichlamydial analysis) of individual compound or 0.5% DMSO for 48 h. After 10 μL of WST-1 reagent was added, cells were incubated for an additional 1 h, and absorbance at 450 nm was recorded. The viability of compound-treated cells was calculated by the absorbance relative to that of DMSO control setting as 100% [22].
In general terms: Tetrazolium assays rely on reduction of a dye to a coloured formazan, in cell work by metabolically active cells.

The subject of data set [1] is Uninfected HeLa cells. The data set is described as follows: WST-1 cell viability. The conditions noted are these: 32 μM, 48 h. In kind it is cell-based. The procedure:
as §1

Data set [2] concerns C. trachomatis L2. The data set is described as follows: Period incubation assay. The class given is cell-based, Chlamydia trachomatis. The conditions noted are these: progeny EBs at 36 hpi; for Inhibitory effect, treated at 0-2 h: 32 μM, 0-2 h period; for Production of infectious progenies, compound added during the 12-24 h period: 2, 8 or 32 μM. The procedure: HeLa cells seeded in 48-well plate were infected with C. trachomatis L2 at an MOI of 0.2 and treated with 2, 8, or 32 μM of compound during 0-2, 2-12, 12-24, and 24-36 h period. At 36 hpi, the production of infectious progeny EBs and percent inhibition data were determined as above.  Figure 7 Period incubation assay. (a) HeLa cells infected with C. trachomatis L2 were treated with 2, 8, or 32 μM individual compound for indicated times. The production of progeny EBs was determined at 36 hpi. (b–d) Percent inhibition of progeny EBs was calculated based on data in compound-treated samples relative to DMSO-treated control. Data are presented as mean ± SD of three independent assays.

Data set [3] has as its system Uninfected HeLa cells. The data set is described as follows: Host cell cytotoxicity (morphology, nuclear integrity, cell count). The class given is cell-based. The conditions noted are these: 48 h, Evans blue, DAPI, cell counting. The procedure:
Uninfected HeLa cells were cultured with indicated concentration of individual compound or 0.5% DMSO. Forty-eight hours later, cells were fixed with methanol and stained with Evans blue for morphology or DAPI for nuclear integrity. Otherwise, at 48 h later, cells were detached and enumerated by a hemacytometer.  Figure 2 Lack of cytotoxicity of compounds 1 and 2 on HeLa cells. Uninfected HeLa cells were cultured with medium containing various concentrations of individual compound or 0.5% DMSO for 48 h. (a) The cellular morphology was stained with Evans blue, and cell nucleus was stained with DAPI. (b) The cells were enumerated by a hemacytometer. Data are presented as mean ± SD of three independent assays.

For data set [4], the system named is C. trachomatis L2. The data set is described as follows: Inclusion body immunofluorescence staining. The settings on record: for Inclusions at the highest concentration: 32 μM, C. trachomatis L2, HeLa cells, 36 hpi; for Formation (number) and growth (size) of C. trachomatis L2 inclusions: HeLa cells, MOI 0.2, 36 hpi, compared with 0.5% DMSO. In kind it is cell-based, Chlamydia trachomatis. The procedure:
Cell monolayers seeded onto coverslips in a 24-well plate were infected with C. trachomatis at a multiplicity of infection (MOI) of 0.2 inclusion-forming units (IFU) per cell. Unless noted, individual compound was added into culture medium at indicated concentrations simultaneously at the time of inoculation. 0.5% DMSO was used as negative control and 11.25 μM tetracycline (Sigma-Aldrich) as positive control. For C. trachomatis D, an additional centrifugation (900 × g at room temperature for 1 h) was applied to facilitate the infection. At 36 hours postinfection (hpi), infected cells were fixed by precooled methanol and then subjected to sequential staining processed with a primary antibody and a FITC-conjugated secondary antibody. Evans blue was used as cytoplasm counterstain. Images were shot by an Olympus IX51 fluorescence microscope. […] At the highest concentration of 32 μM, inclusions were few and tiny, analogous to the positive control tetracycline (final concentration, 11.25 μM). In addition, the reduction on the production of progeny EBs was consistent with that of the inclusion number and size (Figure 1(b)). The direct inhibitory effect was also analyzed for C. trachomatis D. Happened as expected, changes in inclusion size and number and the progeny production that response to both chemicals are highly similar to those observed for C. trachomatis L2, with slightly weaker effect (Figures 1(a) and 1(c)).  Figure 1 Inhibition effect of compounds 1 and 2 on C. trachomatis. HeLa cells were infected with C. trachomatis L2 or D at an MOI of 0.2 in the presence of 0.5% DMSO, 11.25 μM tetracycline, or various concentrations of individual compound. Cells were either fixed or lysed for determination of infectious progeny EBs at 36 hpi. (a) Representative immunofluorescence microscopy images (scale bar = 100 μm). Inclusions were stained with a polyclonal anti-MoPn antibody that cross-reacts with C. trachomatis L2 and D (green), and cells were counterstained with Evans blue (red). (b, c) The percent inhibition of production of infectious progeny EBs was calculated based on data in compound-treated samples relative to DMSO-treated control. Data are presented as mean ± SD of three independent assays.

Data set [5] relates to Chlamydia trachomatis L2 EBs. The data set is described as follows: Elementary body pretreatment assay. In kind it is cell-based. The conditions noted are these: for EB entry efficiency after EB pretreatment for 4 h: 32 μM, 4°C; for EB counts that enter into host cells after EB pretreatment for 1 h: 2, 8 and 32 μM, 37°C and 4°C. The procedure: Chlamydia trachomatis L2 EBs suspended in SPG at 4 x 10^5 IFU/mL were exposed to 2, 8, or 32 μM individual compound at 37°C or 4°C for indicated times. EBs then were washed twice to eliminate the residual chemical and were immediately loaded onto HeLa cell monolayers at an MOI of 0.2. The infective EB count was measured by quantifying inclusion numbers at 36 hpi using immunofluorescence staining as above.  Figure 4 Compounds 1 and 2 weakly attenuated the EB infectivity. Chlamydia trachomatis L2 EBs were incubated with 2, 8, or 32 μM compound 1 (a) or 2 (b) at 37°C or 4°C for 1 or 4 h. After washes, EBs were used to infect HeLa cell. At 36 hpi, the inclusion was counted as described in “Materials and Methods.” Data are presented as mean ± SD of three independent assays. ∗∗p < 0.01, compared 4°C with 37°C by Student's t-tests. ^#p < 0.05, compared with each DMSO control sample by Student's t-tests.

From publication PMC7984888, “Inhibitory Activity of Pyrroloisoxazolidine Derivatives against Chlamydia trachomatis” (BioMed Research International, 2021) come the findings set out here.

Broadly, the viability is a read-out of living cells in per cent, often relative to untreated cells. As to `Clc1ccc(N2C(c3ccccc3)CC3C(c4ccccc4)N(c4ccccc4)OC32)cc1` (stereo not shown) [Compound 2], the viability at 48 h, 32 µM in the data set “WST-1 cell viability” is 98.3%. Moreover, the “Effect on host cell viability / proliferation activity by WST-1, in words” value in the data set with Uninfected HeLa cells [1] was “did not show cytotoxicity”. In the data set on C. trachomatis L2 [2], the “Inhibitory effect, treated at 0-2 h” value is “weak inhibitory effect”; the “Production of infectious progenies, compound added during the 12-24 h period” value is given as “significantly inhibited”; the “Intracellular chlamydial growth, 2-12 h period treatment” value is “partially prevented”; the “Infectious progeny EBs, 24-36 h period incubation” value is recorded as “partially inhibited”. Also, in the data set on Uninfected HeLa cells [3], the “Cytotoxic activity on host cells (morphology, nuclear integrity, cell proliferation)” value is on record as “No substantial cytotoxic activity”. Moreover, in the data set with C. trachomatis L2 [4], the “Inclusions at the highest concentration” value is “few and tiny”; the “Formation (number) and growth (size) of C. trachomatis L2 inclusions” value was “inhibited the formation (number) and growth (size)”. Further, in data set [5], the “EB entry efficiency after EB pretreatment for 4 h” value was “slightly dropped” and the “EB counts that enter into host cells after EB pretreatment for 1 h” value is listed as “did not change”.

`c1ccc(C2C3CC(c4ccccc4)N(c4ccccc4)C3ON2c2ccccc2)cc1` (stereo not shown) [Compound 1]: in “WST-1 cell viability”, the viability at 48 h, 32 µM is 101%. The “Effect on host cell viability / proliferation activity by WST-1, in words” value in the data set with Uninfected HeLa cells [1] was “did not show cytotoxicity”. Moreover, in the data set on C. trachomatis L2 [2], the “Inhibitory effect, treated at 0-2 h” value is reported as “weak inhibitory effect”; the “Production of infectious progenies, compound added during the 12-24 h period” value is recorded as “significantly inhibited”; the “Intracellular chlamydial growth, 2-12 h period treatment” value is “partially prevented”; the “Infectious progeny EBs, 24-36 h period incubation” value is listed as “partially inhibited”. For the same compound, the “Cytotoxic activity on host cells (morphology, nuclear integrity, cell proliferation)” value in the data set with Uninfected HeLa cells [3] is recorded as “No substantial cytotoxic activity”. Besides, in the data set on C. trachomatis L2 [4], the “Inclusions at the highest concentration” value is “few and tiny”; the “Formation (number) and growth (size) of C. trachomatis L2 inclusions” value was “inhibited the formation (number) and growth (size)”. Further, in data set [5], the “EB entry efficiency after EB pretreatment for 4 h” value is “slightly dropped” and the “EB counts that enter into host cells after EB pretreatment for 1 h” value is recorded as “did not change”.
